Results from patent publication EP2935252B1, “NOVEL BIS-CHROMONE DERIVATIVES, METHODS FOR THEIR PREPARATION AND USES THEREOF” (Rijksuniversiteit te Groningen, priority 2012, dated 2014).

Experiments:
LAD2 mast cell line = assay: β-hexosaminidase release assay: inhibition of Compound 48/80-evoked mast cell degranulation; type: cell-based, human; details: for IC50: LAD2 cells; for efficacy: concentration response curves, Fig. 3, Compound 48/80 1.0 µM; for change in inhibitory activity after photoisomerization: non-irradiated vs 365 nm irradiated; for potency relative to DSCG: β-hexosaminidase release assays, Fig. 3
Experimental: LAD2 Cell culture The human mast cell line LAD2 was kindly provided by Dr. A. Kirshenbaum (National Institute of Allergy and Infectious Diseases, Bethesda, MD). LAD2 cells were cultured in suspension at 37 °C, 95% relative humidity and 5% CO2 in StemPro-34 Serum-free medium (Invitrogen) supplemented with 2 mM L-glutamine (Sigma Aldrich), 100 IU/mL penicillin (Sigma Aldrich), 100 µg/mL streptomycin (Sigma Aldrich) and 100 ng/ml rhSCF (Invitrogen). Cells were not allowed to grow beyond a density of 5.0 x 10^5 cells/mL and fresh medium was supplied once a week.
β-Hexosaminidase Assay β-Hexosaminidase release was measured according to a previously published method.^28 In short, 50 µL of supernatant was transferred to a 96-well plate. To this 100 µL of a 2 mg/mL solution of p-nitrophenyl- N-acetyl-D-glucosaminidine in citrate buffer pH 4.5 was added. The plate was incubated at 37 °C for 1 h. The reaction was stopped by adding 100 µL of 0.4 M glycine solution and the absorbance was measured on a plate reader at a wavelength of 405 nm. Subsequently, the percentage released β-hexosaminidase was determined by comparison with the absorption of cell lysate of the same cells using the following formula: (supernatant)/(supernatant + lysate) × 100% = % Reaased β−Hexosaminidase. [formula]
Inhibitory Activity Tests LAD2 cells were suspended in HEPES buffer at a concentration of 50,000 cells/mL. 80 µL of cell suspension was transferred to a microreaction cup to which 10 µL of inhibitor solution was added. This was incubated at 37 °C for 30 min after which 10 µL of a Compound 48/80 solution was added. Next, the cell suspension was incubated for 30 min at 37 °C and the β-hexosaminidase release was assayed.
MAC and PAC seem to have an almost 100 times greater inhibitory potency than DSCG.
Next, the difference in inhibitory activity between the two photoisomers of DAC, MAC and PAC was determined. The inhibitory activity was determined for each compound at two concentrations that were on the steep part of the concentration response curve, because at these concentrations a possible difference in inhibitory activity is best detectable. LAD2 cells were incubated with either non-irradiated solutions of DAC, MAC and PAC or with solutions that were irradiated with 365 nm light prior incubation. After evoking a degranulation with Compound 48/80, β-hexosaminidase release was determined.. […] At a concentration of 10 µM the relative difference in inhibitory activity between the two forms of PAC is 25% (see Figure 4).

[1] = Ratio of trans and cis photoisomers determined by RP-HPLC at the isosbestic point; type: physicochemical
Experimental: Photoswitching Experiments Irradiation experiments were performed with a Spectroline ENB-280C/FE UV lamp (365 nm) and Thor Labs OSL1-EC Fiber Illuminator (white light).
The photoswitchable behavior of DAC, MAC and PAC was studied using UV-VIS spectroscopy and RP-HPLC. The trans-isomers of DAC, MAC and PAC have a characteristic absorbance maximum between 300 and 400 nm in water. This absorbance maximum decreases when the molecules are photoswitched to their cis-isomers and a new absorbance maximum appears around 430 nm (Fig. 2A-C).^25 Isosbestic points at 405 nm (DAC), 270 nm (MAC) and 270 nm (PAC) clearly illustrate the selective isomerization and reversibility of the photoswitching process. Using RP-HPLC, the ratio of photoisomers was determined for both the non-irradiated and 365 nm-irradiated forms of DAC, MAC and PAC (Table 1). Higher photostationary states were obtained when the photoswitchable inhibitors were irradiated with 365 nm light in DMSO as compared to water (Table 1). Therefore, the compounds were switched at a high concentration in DMSO and diluted in water to obtain a maximum concentration of 1% DMSO (v/v). […]
Table 1 Ratio of trans and cis isomers of the photoswitchable inhibitors under different conditions. Ratios are determined at the isosbestic point (DAC=405 nm, MAC=270 nm, PAC=270 nm) with RP-HPLC (C18, flow 1 mL/min, MeCN and H3PO4pH=3.0).

[2] = Homo sapiens, light or radiation study, degranulation evoked by 1.0 µM Compound 48/80, non-irradiated inhibitors, 30 min pre-incubation, n=3

Compound	inhibitory activity (LAD2 mast cell line; Compound 48/80 1.0 µM)	IC50 (LAD2 mast cell line; [2]) [µM]	efficacy (LAD2 mast cell line)	change in inhibitory activity after photoisomerization (LAD2 mast cell line)	IC50 (LAD2 mast cell line; degranulation evoked by 1.0 µM Compound 48/80, n=3) [µM]	inhibitory activity (LAD2 mast cell line; lower concentration of Compound 48/80 (0.1 µM), data not shown)	potency relative to DSCG (LAD2 mast cell line) [times]	inhibition at 10 µM (LAD2 mast cell line; Homo sapiens, LAD2, light or radiation study, concentration of 10 µM, non-irradiated form more active than irradiated form, read-out: relative difference in inhibitory activity between non-irradiated and 365 nm irradiated form) [%]	cis isomer in the photo stationary state (PSS) ([1]; irradiated form (365 nm)) [%]	trans isomer in the photo stationary state (PSS) ([1]; non-irradiated form) [%]
O=C([O-])c1cc(=O)c2cc(/N=N/c3ccc4oc(C(=O)[O-])cc(=O)c4c3)ccc2o1.[Na+].[Na+] [DAC, Sodium (E)-6,6'-(diazene-1,2-diyl)bis(4-oxo-4H-chromene-2-carboxylate)]	significantly greater inhibitory activity than the original drug DSCG	272	greater efficacy than PAC	a significant change in inhibitory activity after photoisomerization was not observed						
O=C([O-])c1cc(=O)c2c(OCC(O)COc3cccc4oc(C(=O)[O-])cc(=O)c34)cccc2o1.[Na+].[Na+] [DSCG, DiSodiumCromoGlycate, reference compound]	did not show any inhibitory activity				> 1000	able to inhibit mast cell degranulation				
O=C([O-])c1cc(=O)c2c(OCc3cccc(/N=N/c4cccc(COc5cccc6oc(C(=O)[O-])cc(=O)c56)c4)c3)cccc2o1.[Na+].[Na+] [MAC, Sodium (E)-5,5'-(((diazene-1,2-diylbis(3,1-phenylene))bis(methylene))bis(oxy))bis(4-oxo-4H-chromene-2-carboxylate)]	significantly greater inhibitory activity than the original drug DSCG	10	greater efficacy than PAC				~100			
O=C([O-])c1cc(=O)c2c(OCc3ccc(/N=N/c4ccc(COc5cccc6oc(C(=O)[O-])cc(=O)c56)cc4)cc3)cccc2o1.[Na+].[Na+] [PAC, Sodium (E)-5,5'-(((diazene-1,2-diylbis(4,1-phenylene))bis(methylene))bis(oxy))bis(4-oxo-4H-chromene-2-carboxylate)]	significantly greater inhibitory activity than the original drug DSCG	28		A significant difference was observed			~100	25	81	91
